Data taken from patent US20250120958A1, “Treatment of GM2 Gangliosidosis” (Azafaros B.V., priority 2022, published 2025).
“Also recorded” adds a separate entry of the source.

What was measured:
[1] = test system: GlcCer C16:0 and C18:0; experiment: Target engagement: GlcCer C16:0 and C18:0 in the cerebellum; type: in vivo, mouse; conditions: treated vs untreated heterozygous or Hexb (−/−) mice
Excerpt: Consistent with this action, the inhibition of GbA2 should result in an increase in GlcCer species in the brain where GbA2 plays a significant role.

[2] = target: T1, GbA2 (Homo sapiens, UniProt Q9HCG7); experiment: In vitro potency on GbA2 (non-lysosomal glucosylceramidase); type: biochemical
T1 sequence (Q9HCG7 1-927): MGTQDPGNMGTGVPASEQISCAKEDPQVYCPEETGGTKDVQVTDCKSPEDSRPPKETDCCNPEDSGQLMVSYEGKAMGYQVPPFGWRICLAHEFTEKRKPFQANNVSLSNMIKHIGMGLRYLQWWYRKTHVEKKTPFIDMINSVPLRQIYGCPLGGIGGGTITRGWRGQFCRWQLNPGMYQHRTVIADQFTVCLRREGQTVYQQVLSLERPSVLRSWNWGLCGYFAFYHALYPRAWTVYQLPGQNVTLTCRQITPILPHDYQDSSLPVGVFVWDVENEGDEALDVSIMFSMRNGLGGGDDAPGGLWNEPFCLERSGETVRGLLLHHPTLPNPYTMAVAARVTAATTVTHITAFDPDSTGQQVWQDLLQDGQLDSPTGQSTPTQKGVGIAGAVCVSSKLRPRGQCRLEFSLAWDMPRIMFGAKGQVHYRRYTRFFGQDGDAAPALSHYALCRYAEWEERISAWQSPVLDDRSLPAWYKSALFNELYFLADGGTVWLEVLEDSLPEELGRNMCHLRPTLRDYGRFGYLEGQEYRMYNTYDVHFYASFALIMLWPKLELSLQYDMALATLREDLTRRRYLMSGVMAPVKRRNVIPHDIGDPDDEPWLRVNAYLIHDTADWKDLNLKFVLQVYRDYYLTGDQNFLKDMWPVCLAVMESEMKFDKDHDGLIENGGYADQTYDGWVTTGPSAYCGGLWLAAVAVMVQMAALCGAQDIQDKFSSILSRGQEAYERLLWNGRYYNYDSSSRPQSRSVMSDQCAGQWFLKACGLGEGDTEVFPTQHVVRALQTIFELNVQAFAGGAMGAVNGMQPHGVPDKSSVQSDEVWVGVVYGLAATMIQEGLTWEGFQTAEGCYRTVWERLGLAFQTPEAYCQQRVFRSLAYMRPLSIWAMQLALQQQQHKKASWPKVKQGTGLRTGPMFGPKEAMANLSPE

[3] = test system: Hexb (+/−) mice; experiment: Lifespan of heterozygous Hexb (+/−) mice under treatment; conditions: 3 mg/kg/day
Experimental: For all cohorts, drug and/or vehicle (control) were administered by gastric gavage once a day, between 8.00-12.00 am, from the age of 30 days until euthanasia.
In addition, animals heterozygous for the Hexb gene (+/−) were treated with vehicle or 3 mg/kg/day. Dosing continued until the animals reached their humane endpoints determined in a blinded fashion by the animal care staff and primarily consisted of the inability to reach sternal recumbency after 10 seconds and, if achieved, was additionally verified by the senior laboratory technician prior to the commencement of the animal being euthanized.

[4] = test system: Sandhoff mouse model (Hexb (−/−)); experiment: Rotarod (RR) test in Sandhoff mice; type: in vivo; conditions: 16 weeks, 0.5-6 mg/kg/day
Experimental: In the ROT, all animals were on the day before the first testing, habituated to the device for 5 min using a continuous rotation speed of 4-40 rotations per minute (rpm). For the subsequent experiments, no prior habituation was conducted. In the actual testing procedure, the test was conducted over 5 min with an accelerating rotation of 4-40 rpm. Time was measured until the animals fell from the rod. Up to 5 animals could be tested simultaneously.
Behavioral assessments, including open field tests (OFT, ActiMot, TSE systems) and rotarod (RR, IITC Life Sciences), were also performed. The OFT assessed motor skills by placing a mouse into a square box with high walls for 5 minutes to record several parameters, including distance travelled (centimetres) and resting time in zone (seconds). Motor coordination of mice was assessed using a RR apparatus as per previously published protocol (Osmon, Vyas et al. 2018). Briefly, mice were placed on moving cylinders that accelerated from 4 to 40 rotations per minute (rpm) over 5 minutes. Each mouse was allowed three trials on the RR with a minimum of 10 minutes for rest in-between assessments. The highest number achieved was recorded for each of the following parameters: latency to fall, end rotations per minute and distance travelled.

[5] = Stability of dosing formulation; type: physicochemical; conditions: 0.01 mg/mL-2 mg/mL in purified water/citric acid/NaOH, storage 15-25° C.
Excerpt: • 1. Introduction and preparation of vehicle control • 1.1. Read the method prior to proceeding with laboratory work • 1.2. Read Study Plan • 1.3. Ensure the work-station is clean and select the correct equipment, clean glassware etc. for the study. • 1.4. Formulate in ascending order of concentration. • 1.5. Start with control group—measure the required volume of purified water and magnetically stir. Whilst magnetically stirring, adjust pH to 3.5-2.5 using 1 M citric acid. Record volumes in raw data. • 1.6. Stir for a minimum of 30 minutes. Record stir times in raw data. • 1.7. Adjust the pH to 4.5-5.5 using 0.1 M NaOH. Record volumes in raw data. • 1.8. Stir for a minimum of 20 minutes using a magnetic stirrer. Record stir times in the raw data. • 1.9. Sample at this point if required. • 2. Test item formulations • 2.1. Weigh the required amount of test item: e.g., For a 0.9 mg/mL target concentration in 600 mL, weigh 540 mg. • 2.2. Add 70% of the final volume of purified water to the test item to obtain a thin suspension (may be difficult to see at these low concentrations): e.g., 420 mL • 2.3. Add not more than 3 molar equivalents of citric acid, and record the pH which should be pH 3.5-2.5, e.g., 3.74 mL of 1 M citric acid solution in water. • Note: The suspension should clear up as an indication for dissolution of the test item. • 2.4. […]

SMILES: OC[C@H]1[C@@H](O)[C@H](O)[C@@H](O)CN1CCCCCOCc1ccc(-c2ccccc2)c(F)c1 [AZ-3102]
- increase in GlcCer C16:0 [1]: approximately 10 fold
- increase in GlcCer C18:0 [1]: approximately 10 fold
- inhibitory activity on GbA2 [2]: low nM
- IC50 ([2]; in vitro potency): 692 pM
- effect on lifespan compared to vehicle [3]: no effect on lifespan
- RR assessments, effect of treatment vs vehicle [4]: significant at all dose levels; also recorded: significantly improved
- Stability of formulation [5]: 8 days
